Assay results taken from article PMC9671208, “Synthesis, biological evaluation, and molecular docking of novel hydroxyzine derivatives as potential AR antagonists” (Frontiers in Chemistry, 2022).

Assays:
[1] = test system: PC-3; assay: CCK-8 cytotoxicity assay, PC-3; format: cell-based, human; conditions: for IC50: Homo sapiens, PC-3 cells, CCK-8, 24 h, mean ± SD of three experiments
Description: (§1) Cell proliferation was measured using the CCK-8 assay kit ([Kaspers et al., 1997]; [Kaspers et al., 1998]; [Ding et al., 2010]). Cells were seeded into 96-well plates (>5*10^4) with approximately 100 ul of cell suspension per well and incubated in 37°C incubator for 4 h. Various concentrations of the compounds were then added and incubated for a further 24 h in a 37°C incubator. Finally, 10 ul CCK8 was added and incubated for 0.5–4 h, absorbance at 450 nm was determined. ([Guo et al., 2021]; [He et al., 2022a]; [Hu et al., 2022]).
(§2) The in vitro cytotoxic activity results of the synthesized derivatives 3–17 against human prostate cancer lines (PC-3, LNCaP, and DU145) and the human prostate epithelial cell line (WPMY-1) were evaluated, as shown in Table 1.

[2] = test system: LNCaP; assay: CCK-8 cytotoxicity assay, LNCaP; format: cell-based, human; conditions: for IC50: Homo sapiens, LNCaP cells, CCK-8, 24 h, mean ± SD of three experiments
Description: as §1, §2

[3] = test system: DU145; assay: CCK-8 cytotoxicity assay, DU145; format: cell-based, human; conditions: for IC50: Homo sapiens, DU-145, DU145 cells, CCK-8, 24 h, mean ± SD of three experiments
Description: as §1, §2

[4] = test system: WPMY-1; assay: CCK-8 cytotoxicity assay, WPMY-1 normal prostate epithelial cells; format: cell-based; conditions: WPMY-1 normal human prostate epithelial cells, CCK-8, 24 h; mean ± SD of three experiments
Description: as §1, §2

[5] = molecular target: T1, AR (Homo sapiens, UniProt P10275); assay: AR reporter gene (luciferase) assay; format: cell-based; conditions: read-out: AR antagonistic activity % (10 μM)
T1 sequence (P10275 1-920): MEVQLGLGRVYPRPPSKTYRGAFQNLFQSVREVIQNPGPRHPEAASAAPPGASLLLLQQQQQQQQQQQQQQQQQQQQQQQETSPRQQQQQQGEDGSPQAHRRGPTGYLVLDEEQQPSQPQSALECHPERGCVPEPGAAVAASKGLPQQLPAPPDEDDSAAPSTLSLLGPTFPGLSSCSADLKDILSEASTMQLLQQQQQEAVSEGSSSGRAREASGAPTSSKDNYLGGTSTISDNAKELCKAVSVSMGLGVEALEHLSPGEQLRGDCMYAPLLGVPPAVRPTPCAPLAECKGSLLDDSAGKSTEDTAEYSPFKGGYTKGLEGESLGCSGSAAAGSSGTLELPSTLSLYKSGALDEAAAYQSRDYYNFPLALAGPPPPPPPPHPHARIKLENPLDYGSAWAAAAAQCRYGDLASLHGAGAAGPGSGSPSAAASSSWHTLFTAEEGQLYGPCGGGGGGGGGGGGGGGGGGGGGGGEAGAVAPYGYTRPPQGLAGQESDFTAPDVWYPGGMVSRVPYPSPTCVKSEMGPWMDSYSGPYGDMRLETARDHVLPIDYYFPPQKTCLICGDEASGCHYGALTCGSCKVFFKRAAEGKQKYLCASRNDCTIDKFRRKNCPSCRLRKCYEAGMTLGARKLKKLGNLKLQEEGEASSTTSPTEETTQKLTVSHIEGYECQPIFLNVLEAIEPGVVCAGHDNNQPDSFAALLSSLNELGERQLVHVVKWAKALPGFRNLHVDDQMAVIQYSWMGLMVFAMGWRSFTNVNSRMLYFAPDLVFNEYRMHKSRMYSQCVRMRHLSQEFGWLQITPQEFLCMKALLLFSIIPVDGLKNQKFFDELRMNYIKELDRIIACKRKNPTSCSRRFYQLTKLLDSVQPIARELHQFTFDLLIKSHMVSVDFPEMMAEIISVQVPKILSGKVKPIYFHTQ
Description: Firefly and Renilla luciferase activities, were determined using the Dual-Glo™luciferase assay kit. RLUs were determined using the GloMax®96-Microplate Luminometer.

Row | Compound | IC50 [1] [µM] | IC50 [2] [µM] | IC50 [3] [µM] | IC50 [4] [µM] | inhibition at 10 µM [5] [%] | melting point [°C] | cytotoxic activity against PC-3 cells (in words) [1] | cytotoxic activity against LNCaP cells (in words) [2] | cytotoxic activity against DU145 cells (in words) [3]
1 | OCCc1ccc(CN2CCN(C(c3ccccc3)c3ccccc3)CC2)cc1 [Compound 3, 2-(4-((4-benzhydrylpiperazin-1-yl)methyl)phenyl)ethan-1-ol] | 8.13 ± 0.12 | 6.14 ± 0.58 | 11.1 ± 0.76 | > 50 | 40.17 ± 0.24 | 122 to 123 |  |  | 
2 | Cc1ccc(C(c2ccccc2)N2CCN(Cc3ccc(CCO)cc3)CC2)cc1 (stereo not drawn) [Compound 4, 2-(4-((4-(phenyl(p-tolyl)methyl)piperazin-1-yl)methyl)phenyl)ethan-1-ol] | 2.56 ± 0.32 | 4.67 ± 1.02 | 6.14 ± 0.24 | > 50 | 32.5 ± 0.65 | 125 to 126 | strong cytotoxic activities | strong cytotoxic activities | strong cytotoxic activities
3 | Cc1ccc(C(c2ccc(C)cc2)N2CCN(Cc3ccc(CCO)cc3)CC2)cc1 [Compound 5, 2-(4-((4-(di-p-tolylmethyl)piperazin-1-yl)methyl)phenyl)ethan-1-ol] | 12.1 ± 0.29 | 3.73 ± 0.58 | 9.82 ± 0.24 | 37.51 ± 0.37 | 22.7 ± 0.72 | 128 to 129 | moderate activity |  | moderate activity
4 | COc1ccc(C(c2ccccc2)N2CCN(Cc3ccc(CCO)cc3)CC2)cc1 (stereo not drawn) [Compound 6, 2-(4-((4-((4-methoxyphenyl)(phenyl)methyl)piperazin-1-yl)methyl)phenyl)ethan-1-ol] | 3.15 ± 0.48 | 6.17 ± 1.02 | 2.17 ± 0.72 | > 50 | 30.75 ± 0.17 | 116 to 117 | strong cytotoxic activities | strong cytotoxic activities | strong cytotoxic activities
5 | OCCc1ccc(CN2CCN(C(c3ccccc3)c3ccc(F)cc3)CC2)cc1 (stereo not drawn) [Compound 7, 2-(4-((4-((4-fluorophenyl)(phenyl)methyl)piperazin-1-yl)methyl)phenyl)ethan-1-ol] | 1.87 ± 0.22 | 5.17 ± 0.63 | 2.17 ± 1.12 | 48.26 ± 0.41 | 38.7 ± 0.83 | 116 to 117 | strong cytotoxic activities | strong cytotoxic activities | strong cytotoxic activities
6 | OCCc1ccc(CN2CCN(C(c3ccc(F)cc3)c3ccc(F)cc3)CC2)cc1 [Compound 8, 2-(4-((4-(bis(4-fluorophenyl)methyl)piperazin-1-yl)methyl)phenyl)ethanol] | 10.12 ± 0.08 | 4.92 ± 0.29 | 12.3 ± 0.16 | 35.53 ± 0.13 | 25.2 ± 0.71 | 133 to 134 |  |  | 
7 | OCCc1ccc(CN2CCN(C(c3ccccc3)c3ccc(Cl)cc3)CC2)cc1 (stereo not drawn) [Compound 9, 2-(4-((4-((4-chlorophenyl)(phenyl)methyl)piperazin-1-yl)methyl)phenyl)ethanol] | 1.53 ± 0.16 | 4.13 ± 0.06 | 7.63 ± 0.12 | > 50 | 28.42 ± 0.25 | 130 to 131 | strong cytotoxic activities | strong cytotoxic activities | strong cytotoxic activities
8 | OCCc1ccc(CN2CCN(C(c3ccc(Cl)cc3)c3ccc(Cl)cc3)CC2)cc1 [Compound 10, 2-(4-((4-(bis(4-chlorophenyl)methyl)piperazin-1-yl)methyl)phenyl)ethan-1-ol] | 15.24 ± 0.14 | 7.14 ± 0.29 | 10.8 ± 1.14 | > 50 | 20.47 ± 0.18 | 127 to 128 |  |  | 
9 | OCCc1ccc(CN2CCN(Cc3ccccc3)CC2)cc1 [Compound 11, 2-(4-((4-benzylpiperazin-1-yl)methyl)phenyl)ethan-1-ol] | 20.4 ± 0.48 | 11.2 ± 0.14 | 11.3 ± 0.27 | > 50 | 65.15 ± 0.57 | 119 to 120 |  |  | 
10 | CC(c1ccccc1)N1CCN(Cc2ccc(CCO)cc2)CC1 (stereo not drawn) [Compound 12, 2-(4-((4-(1-phenylethyl)piperazin-1-yl)methyl)phenyl)ethan-1-ol] | 13.7 ± 1.12 | 7.76 ± 0.19 | 16.3 ± 0.63 | > 50 | 68.62 ± 0.38 | 114 to 115 |  |  | 
11 | Cc1ccc(CN2CCN(Cc3ccc(CCO)cc3)CC2)cc1 [Compound 13, 2-(4-((4-(4-methylbenzyl)piperazin-1-yl)methyl)phenyl)ethan-1-ol] | 15.4 ± 0.42 | 22.1 ± 0.76 | 17.2 ± 1.02 | 47.14 ± 0.42 | 64.18 ± 0.45 | 112 to 113 |  |  | 
12 | COc1ccc(CN2CCN(Cc3ccc(CCO)cc3)CC2)cc1 [Compound 14, 2-(4-((4-(4-methoxybenzyl)piperazin-1-yl)methyl)phenyl)ethan-1-ol] | 11.1 ± 0.67 | 16.2 ± 0.53 | 24.1 ± 0.47 | > 50 | 58.88 ± 0.23 | 117 to 118 |  |  | 
13 | OCCc1ccc(CN2CCN(Cc3ccc(F)cc3)CC2)cc1 [Compound 15, 2-(4-((4-(4-fluorobenzyl)piperazin-1-yl)methyl)phenyl)ethan-1-ol] | 10.5 ± 1.14 | 18.45 ± 0.16 | 16.2 ± 0.62 | > 50 | 64.35 ± 0.17 | 114 to 115 |  |  | 
14 | OCCc1ccc(CN2CCN(Cc3ccc(Cl)cc3)CC2)cc1 [Compound 16, 2-(4-((4-(4-chlorobenzyl)piperazin-1-yl)methyl)phenyl)ethan-1-ol] | 14.4 ± 0.35 | 16.4 ± 0.19 | 31.5 ± 1.21 | > 50 | 60.25 ± 0.35 | 109 to 110 |  |  | 
15 | OCCc1ccc(CN2CCN(C3c4ccccc4Sc4ccccc43)CC2)cc1 [Compound 17, 2-(4-((4-(9H-thioxanthen-9-yl)piperazin-1-yl)methyl)phenyl)ethan-1-ol] | 6.42 ± 0.52 | 5.61 ± 0.86 | 8.35 ± 0.28 | > 50 | 36.5 ± 0.79 | 121 to 122 |  |  | 
16 | CC(C)(C)NC(=O)[C@H]1CC[C@H]2[C@@H]3CC[C@H]4NC(=O)C=C[C@]4(C)[C@H]3CC[C@]12C [Finasteride, reference compound] | 17.8 | 13.5 | 14.6 |  |  |  |  |  | 
17 | COc1ccccc1N1CCN(CC(O)COc2cccc3ccccc23)CC1 (stereo not drawn) [Naftopidil, reference compound] | 42.1 ± 0.79 | 22.4 ± 0.61 | 34.58 ± 0.31 | > 50 |  |  |  |  | 
